pIC50: −log10 of the molar value.

The results in this text go back to patent publication US8658646B2, “Pyrrolopyrazine kinase inhibitors” (Hoffmann-LaRoche Inc., priority 2011, dated 2014).

For test [1], the target named is T1, JAK3: Recombinant human kinase domain (Homo sapiens, UniProt P52333).
T1 construct: JAK3: Recombinant human kinase domain from Millipore (Cat #14-629) or prepared; purchased Millipore 14-629
In words: Determination of IC50 of Janus Kinase (JAK) inhibition, radioactive end-point 33P-ATP assay, JAK3. The following applies: ATP 1.5 uM, peptide 50 uM, 20 minutes, read-out: JAK3-INHIB-DR/v1~NO ADDITIVE~Enzyme_Conc = 100. The test is classed as biochemical.
Description: Determination of IC50 of Janus Kinase (JAK) Inhibition:
Assay conditions used are described below: • Assay Buffer: JAK Kinase Buffer: 50 mM Hepes [pH 7.2], 10 mM MgCl2, 1 mM DTT, 1 mg/ml BSA. The assay was carried out in this buffer. • Assay Format The kinase activity of all three JAK kinases was measured using a radioactive, end-point assay and with trace amounts of ^33P-ATP. The assays were carried out in 96-well polypropylene plates. Experimental Method:
All concentrations were final in the reaction mixture and all incubations were carried at room temperature. […] Final concentration of DMSO in the reaction was 10%. • 2) Compounds were preincubated with enzyme (0.5 nM JAK3 (commercially available), 0.2 nM JAK3 (prepared), 1 nM JAK2, 5 nM JAK1) for 10 minutes. • 3) Reactions were initiated by the addition of a cocktail of the two substrates (ATP and peptide premixed in the JAK Kinase Buffer). […] JAK1 assay was carried out at an ATP concentration of 10 uM and a peptide concentration of 50 uM. • 4) The duration of the assay for JAK2 and JAK3 is 20 minutes. JAK1 assay was carried out for 40 minutes. With all three enzymes, reactions were terminated by the addition of 0.5M EDTA to a final concentration of 100 mM. • 5) 25 ul of terminated reactions were transferred to 150 ul of a 7.5% (v/v) slurry of streptavidin-coated sepharose beads in MgCl2- and CaCl2-free 1× Phosphate Buffered Saline containing 50 mM of EDTA in 96-well, 1.2 um MultiScreen-BV filter plates. • 6) After a 30-minute incubation, the beads were washed under vacuum with the following buffers: • a. 3 to 4 washes with 200 ul of 2M NaCl. • b. 3 to 4 washes with 200 ul of 2M NaCl plus 1% (v/v) phosphoric acid. • c. 1 wash with water. • 7) Washed plates were dried in a 60° C. oven for between 1 to 2 hours. • 8) 70 ul of Microscint 20 scintillation fluid was added to each well of filter plates and after at least 30 minutes of incubation, radioactive counts were measured in a Perkinelmer microplate scintillation counter.

Test [2] concerns the target T2, recombinant human SYK360-635 (Homo sapiens, UniProt P43405).
T2 construct: made in house
In words: Determination of IC50 of Spleen Tyrosine Kinase (SYK) inhibition, 33P ATP filtration assay. Format: biochemical. The following applies: SYK aa 360-635 0.5 nM; ATP 20 μM, peptide 5 μM, 0.1% BSA; read-out: SYK_ENZYME_FILTRATION/v1, BSA.
Description: All concentrations were final in the reaction mixture and all incubations were carried at room temperature. […] SYK Assay Information Determination of IC50 of Spleen Tyrosine Kinase (SYK) Inhibition:
SYK kinase assay is a standard kinase assay adapted to a 96 well plate format. This assay is performed in 96-well format for IC50 determination with 8 samples which represented 10 half log dilutions and a 40 μL reaction volume. The assay measures the incorporation of radiolabeled ^33P γATP into an N-terminally biotinylated peptide substrate, derived from naturally occurring phosphoacceptor consensus sequence (Biotin-11aa DY*E). […] Experimental Method:
DMSO and the mixture was incubated for 10 min at RT.
The kinase reaction was initiated by the addition of 10 μL 4× substrate cocktail containing the DYE peptide substrate [0 or 5 μM], ATP [20 μM] and ^33PγATP [2 μCi/r×n]. After incubation at 30° C. for 15 min, the reaction was terminated by the transfer of 25 μL pf the reaction sample to a 96 well 0.65 μm Millipore MADVNOB membrane/plate containing 200 μL 5 mM EDTA and 20% Streptavidine coated beads in PBS.
The unbound radionucleotides were washed under vacuum with 3×250 μL 2M NaCl; 2×250 μL 2M NaCl+1% phosphoric acid; 1×250 μL H2O. After the last wash membrane/plates were transferred to an adaptor plate, heat dried for 15 min at 60° C., and 50 μL scintillation cocktail was added to each well and 4 h later the amount of radioactivity was counted in a top counter.

T1 sequence (P52333 822-1111 limits assumed): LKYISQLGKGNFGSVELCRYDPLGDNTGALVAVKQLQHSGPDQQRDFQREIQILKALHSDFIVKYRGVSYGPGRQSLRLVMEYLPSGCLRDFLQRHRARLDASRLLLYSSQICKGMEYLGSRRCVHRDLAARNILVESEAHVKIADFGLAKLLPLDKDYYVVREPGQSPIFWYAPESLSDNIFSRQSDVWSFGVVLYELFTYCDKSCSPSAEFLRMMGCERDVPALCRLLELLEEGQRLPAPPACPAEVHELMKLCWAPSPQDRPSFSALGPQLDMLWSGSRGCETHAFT

Consider `Cn1nc(-c2cnc3[nH]cc(C(=O)N[C@@H]4CCCN(CC(F)(F)F)C4)c3n2)c2ccc(Cl)cc21` [Example I-168, 2-(6-Chloro-1-methyl-1H-indazol-3-yl)-5H-pyrrolo[2,3-b]pyrazine-7-carboxylic acid [(R)-1-(2,2,2-trifluoro-ethyl)-piperidin-3-yl]-amide], for which the results for the pIC50 in test [1] and in test [2] were 6.93 and 5.43, respectively.
With `C[C@@H](NC(=O)c1c[nH]c2ncc(-c3nccc4ccccc34)nc12)C(=O)N1CC(C#N)C1` [Example I-77, 2-Isoquinolin-1-yl-5H-pyrrolo[2,3-b]pyrazine-7-carboxylic acid [(R)-2-(3-cyano-azetidin-1-yl)-1-methyl-2-oxo-ethyl]-amide], the pIC50 is 7.27 in test [1] and below 5.00 in test [2].
For `CC(NC(=O)c1c[nH]c2ncc(-c3nn(CCN4CCOCC4)c4cc(F)ccc34)nc12)c1ccncc1` (centres unmarked) [Example I-248, 2-[6-Fluoro-1-(2-morpholin-4-yl-ethyl)-1H-indazol-3-yl]-5H-pyrrolo[2,3-b]pyrazine-7-carboxylic acid (1-pyridin-4-yl-ethyl)-amide], in that order: 7.27 and 6.29.
In the same order, the values of `Cn1nc(-c2cnc3[nH]cc(C(=O)N[C@H]4CC[C@@H](O)CC4)c3n2)c2ccc(Cl)cc21` [Example I-158, 2-(6-Chloro-1-methyl-1H-indazol-3-yl)-5H-pyrrolo[2,3-b]pyrazine-7-carboxylic acid (cis-4-hydroxy-cyclohexyl)-amide] are 8.69 and 8.01.
On to `Cn1nc(-c2cnc3[nH]cc(C(=O)N[C@@H]4CCCOC4)c3n2)c2ccc(Cl)cc21` [Example I-139, 2-(6-Chloro-1-methyl-1H-indazol-3-yl)-5H-pyrrolo[2,3-b]pyrazine-7-carboxylic acid (R)-tetrahydro-pyran-3-ylamide], for which the pIC50 in test [1] was 8.34; in test [2], 8.07.
In the case of `COC[C@H](CC(C)C)NC(=O)c1c[nH]c2ncc(-c3nn(C)c4cc(F)ccc34)nc12` [Example I-179, 2-(6-Fluoro-1-methyl-1H-indazol-3-yl)-5H-pyrrolo[2,3-b]pyrazine-7-carboxylic acid ((S)-1-methoxymethyl-3-methyl-butyl)-amide], the pIC50 is 8.23 in test [1] and 6.83 in test [2].
For the compound `Cn1nc(-c2cnc3[nH]cc(C(=O)NC4CCC(NS(C)(=O)=O)C4)c3n2)c2ccc(Cl)cc21` (centres unmarked) [Example I-38, 2-(6-Chloro-1-methyl-1H-indazol-3-yl)-5H-pyrrolo[2,3-b]pyrazine-7-carboxylic acid (3-methanesulfonylamino-cyclopentyl)-amide], the results for the pIC50 in test [1] and in test [2] were 8.05 and 7.80, respectively.
Regarding `CC(C)NC(=O)c1c[nH]c2ncc(-c3nn(CCN4CCOCC4)c4cc(Cl)cc(F)c34)nc12` [Example I-129, 2-[6-Chloro-4-fluoro-1-(2-morpholin-4-yl-ethyl)-1H-indazol-3-yl]-5H-pyrrolo[2,3-b]pyrazine-7-carboxylic acid isopropylamide], the pIC50 is 8.36 in test [1] and 7.31 in test [2].
In the case of `CC(NC(=O)c1c[nH]c2ncc(-c3nn(C)c4cc(F)ccc34)nc12)C(O)C1CCOCC1` (single isomer, unassigned) [Example I-203, 2-(6-Fluoro-1-methyl-1H-indazol-3-yl)-5H-pyrrolo[2,3-b]pyrazine-7-carboxylic acid [cis-2-hydroxy-1-methyl-2-(tetrahydro-pyran-4-yl)-ethyl]-amide], the pIC50 is 6.58 in test [1] and 6.70 in test [2].
`COC[C@@H](NC(=O)c1c[nH]c2ncc(-c3nn(C)c4cc(F)ccc34)nc12)[C@H](C)OC` [Example I-189, 2-(6-Fluoro-1-methyl-1H-indazol-3-yl)-5H-pyrrolo[2,3-b]pyrazine-7-carboxylic acid ((1R,2S)-2-methoxy-1-methoxymethyl-propyl)-amide]: the pIC50 in test [1] was 7.73; in test [2], 6.61.
